Experimental data reported in US20140128385A1 (NOVARTIS AG, priority 2011, published 2014).
Structures can show the parent of a compound that is named as a salt.

These compounds were tested against T1, BACE-2 (Homo sapiens, UniProt Q9Y5Z0) (assay: assay for inhibition of BACE-2).
T1 construct: Recombinant BACE-2 (extracellular domain, expressed in baculovirus and purified using standard methods); made in house
T1 sequence (Q9Y5Z0 63-473 limits assumed): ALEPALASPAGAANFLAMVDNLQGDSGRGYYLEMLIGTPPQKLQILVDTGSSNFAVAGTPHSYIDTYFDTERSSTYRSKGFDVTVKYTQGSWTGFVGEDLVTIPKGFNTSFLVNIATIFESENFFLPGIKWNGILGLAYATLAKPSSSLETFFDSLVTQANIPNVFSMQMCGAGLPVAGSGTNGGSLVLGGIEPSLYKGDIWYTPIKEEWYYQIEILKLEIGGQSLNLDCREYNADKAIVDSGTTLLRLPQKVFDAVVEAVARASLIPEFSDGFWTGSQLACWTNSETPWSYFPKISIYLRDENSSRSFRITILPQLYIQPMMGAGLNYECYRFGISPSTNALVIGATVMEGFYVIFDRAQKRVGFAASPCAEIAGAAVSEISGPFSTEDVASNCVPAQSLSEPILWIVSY
Type: biochemical
`C[C@H]1OC[C@](c2cc(NC(=O)c3ccc(Br)cn3)ccc2F)(C(F)F)N=C1N` (relative stereo) [Example 77, 5-Bromo-pyridine-2-carboxylic acid [3-((3R*,6R*)-5-amino-3-difluoromethyl-6-methyl-3,6-dihydro-2H-[1,4]oxazin-3-yl)-4-fluoro-phenyl]-amide hydrochloride] gave an IC50 of 42 nM. `NC1=NC(CF)(c2cccc(NC(=O)c3ccc(Br)cn3)c2)COC1` (stereo not shown) [Example 31, 5-Bromo-pyridine-2-carboxylic acid [3-(5-amino-3-fluoromethyl-3,6-dihydro-2H-[1,4]oxazin-3-yl)-phenyl]-amide] was tested, and the IC50 was 130 nM. `NC1=N[C@](CF)(c2cccc(NC(=O)c3ccc(Br)cn3)c2)COC1` [Example 33, 5-Bromo-pyridine-2-carboxylic acid [3-((R)-5-amino-3-fluoromethyl-3,6-dihydro-2H-[1,4]oxazin-3-yl)-phenyl]-amide] showed an IC50 of 90 nM. For `COc1cnc(C(=O)Nc2ccc(F)c([C@]3(C)CO[C@@](C)(C(F)(F)F)C(N)=N3)c2)c(Cl)c1` [Example 232, 3-Chloro-5-methoxy-pyridine-2-carboxylic acid [3-((3R,6R)-5-amino-3,6-dimethyl-6-trifluoromethyl-3,6-dihydro-2H-[1,4]oxazin-3-yl)-4-fluoro-phenyl]-amide hydrochloride], the IC50 was 7 nM. Work on `NC1=N[C@](CF)(c2cc(NC(=O)c3ccc(Cl)cn3)ccc2F)COC1` [Example 85, 5-Chloro-pyridine-2-carboxylic acid [3-((R)-5-amino-3-fluoromethyl-3,6-dihydro-2H-[1,4]oxazin-3-yl)-4-fluoro-phenyl]-amide hydrochloride] yielded an IC50 of 8 nM. `NC1=N[C@](CF)(c2cc(NC(=O)c3ncc(Br)cc3O)ccc2F)COC1` [Example 94] gave an IC50 of 33 nM. With `Cc1ccc(C(=O)Nc2ccc(F)c([C@]3(C(F)F)COCC(N)=N3)c2)nc1` [Example 143] the IC50 was 66 nM. For `Cc1cc(Br)cnc1C(=O)Nc1ccc(F)c(C2(C(F)F)CN(C(=O)OCC(Cl)Cl)CC(N)=N2)c1` (stereo not shown) [Example 207, 5-Amino-3-{5-[(5-bromo-3-methyl-pyridine-2-carbonyl)-amino]-2-fluoro-phenyl}-3-difluoromethyl-3,6-dihydro-2H-pyrazine-1-carboxylic acid 2,2-dichloro-ethyl ester], the IC50 was 3 nM. `NC1=N[C@@](c2cc(NC(=O)c3ncc(Cl)cc3N)ccc2F)(C(F)F)COC1` [Example 160, 3-Amino-5-chloro-pyridine-2-carboxylic acid [3-((R)-5-amino-3-difluoromethyl-3,6-dihydro-2H-[1,4]oxazin-3-yl)-4-fluoro-phenyl]-amide hydrochloride] gave an IC50 of 8 nM. `NC1=NC(c2cccc(NC(=O)c3cnc(C(F)F)cn3)c2)(C(F)F)COC1` (stereo not shown) [Example 110] gave an IC50 of 3550 nM. For `NC1=N[C@@](c2cc(NC(=O)c3ccc(Cl)cn3)ccc2F)(C(F)F)COC1` [Example 137], the IC50 was 18 nM. `CC#CCOc1cnc(C(=O)Nc2ccc(F)c([C@]3(C(F)F)COCC(N)=N3)c2)c(C)n1` [Example 182, 5-But-2-ynyloxy-3-methyl-pyrazine-2-carboxylic acid [3-((R)-5-amino-3-difluoromethyl-3,6-dihydro-2H-[1,4]oxazin-3-yl)-4-fluoro-phenyl]-amide hydrochloride] showed an IC50 of 171 nM. With `NC1=NC(CF)(c2cccc(NC(=O)c3ccc(Br)cn3)n2)COC1` (stereo not shown) [Example 260] the IC50 was 1660 nM. Work on `NC1=NC(CF)(c2cc(NC(=O)c3ncc(Cl)cc3Cl)ccc2F)COC1` (stereo not shown) [Example 88] yielded an IC50 of 12 nM. For `Cc1cc(OC(F)F)cnc1C(=O)Nc1ccc(F)c([C@]2(C(F)F)CNCC(N)=N2)c1` (single isomer, unassigned) [Example 212], the IC50 was 116 nM. In the case of `NC1=N[C@@](c2cc(NC(=O)c3ncc(Cl)cc3O)ccc2F)(C(F)F)COC1` [Example 169, 5-Chloro-3-hydroxy-pyridine-2-carboxylic acid [3-((R)-5-amino-3-difluoromethyl-3,6-dihydro-2H-[1,4]oxazin-3-yl)-4-fluoro-phenyl]-amide], the IC50 is reported as 4 nM. `Cc1nc(C(=O)Nc2ccc(F)c([C@]3(C(F)F)COCC(N)=N3)c2)c(C)o1` [Example 128] showed an IC50 of 95 nM. `CCC1C(N)=NC(C)(c2cccc(NC(=O)c3ccc(Br)cn3)c2)C(=O)N1C` (mixture of isomers) [Example 200, 5-Bromo-pyridine-2-carboxylic acid [3-(6-amino-5-ethyl-2,4-dimethyl-3-oxo-2,3,4,5-tetrahydro-pyrazin-2-yl)-phenyl]-amide] gave an IC50 of 1250 nM. Compound `NC1=N[C@@](c2cc(NC(=O)c3cc4ccccn4n3)ccc2F)(C(F)F)COC1` [Example 126] has an IC50 of 550 nM. For `COc1cc(Br)cnc1C(=O)Nc1ccc(F)c(C2(C)N=C(N)COCC2(F)F)c1` (stereo not shown) [Example 155, 5-Bromo-3-methoxy-pyridine-2-carboxylic acid [3-(3-amino-6,6 difluoro-5-methyl-2,5,6,7 tetrahydro-[1,4]oxazepin-5-yl)-4 fluoro-phenyl]-amide], the IC50 was 43 nM. `CC1(c2cccc(NC(=O)c3cc(Br)co3)c2)COCC(N)=N1` (stereo not shown) [Example 20, 4-Bromo-furan-2-carboxylic acid [3-(5-amino-3-methyl-3,6-dihydro-2H-[1,4]oxazin-3-yl)-phenyl]-amide hydrochloride] gave an IC50 of 226 nM. With `COc1cc(Br)cnc1C(=O)Nc1ccc(F)c([C@]2(C(F)F)COCC(N)=N2)c1` [Example 130] the IC50 was 42 nM. With `Cc1cc(Br)cnc1C(=O)Nc1cccc([C@]2(C)COCC(=N)N2)c1` [Example 29, 5-Bromo-3-methyl-pyridine-2-carboxylic acid [3-((R)-5-amino-3-methyl-3,6-dihydro-2H-[1,4]oxazin-3-yl)-phenyl]-amide hydrochloride] the IC50 was 21 nM. Work on `[2H]c1nc(C(=O)Nc2cc(F)c(F)c([C@]3(C(F)F)COCC(N)=N3)c2)c(C([2H])([2H])[2H])c([2H])c1Cl` [Example 230, 4,6-Dideutero-5-chloro-3-trideuteromethyl-pyridine-2-carboxylic acid [3-((R)-5-amino-3-difluoromethyl-3,6-dihydro-2H-[1,4]oxazin-3-yl)-4,5-difluoro-phenyl]-amide] yielded an IC50 of 8 nM. `CC1(c2cccc(NC(=O)c3ccc(Br)cn3)n2)COCC(N)=N1` (racemic) [Example 258, 5-Bromo-pyridine-2-carboxylic acid [6-(5-amino-3-methyl-3,6-dihydro-2H-[1,4]-oxazin-3-yl)-pyridin-2-yl]-amide] showed an IC50 of 363 nM. In the case of `Cc1nc(C(=O)Nc2ccc(F)c([C@]3(C)CO[C@@](C)(C(F)(F)F)C(N)=N3)c2)c(C)o1` [Example 237, 2,5-Dimethyl-oxazole-4-carboxylic acid [3-((3R,6R)-5-amino-3,6-dimethyl-6-trifluoromethyl-3,6-dihydro-2H-[1,4]oxazin-3-yl)-4-fluoro-phenyl]-amide hydrochloride], the IC50 is reported as 7 nM. Compound `Cc1cc(Cl)cnc1C(=O)Nc1cccc(C2(C(F)F)COCC(N)=N2)c1` (stereo not shown) [Example 41] has an IC50 of 28 nM. Compound `CCN1CC(C)(c2cc(NC(=O)c3ccc(C#N)cn3)ccc2F)N=C(N)C1=O` (stereo not shown) [Example 199, 5-Cyano-pyridine-2-carboxylic acid [3-(6-amino-4-ethyl-2-methyl-5-oxo-2,3,4,5-tetrahydro-pyrazin-2-yl)-4-fluoro-phenyl]-amide hydrochloride] has an IC50 of 132 nM. `C[C@@]1(c2cc(NC(=O)c3ncc(C#N)cn3)ccc2F)CO[C@@](C)(C(F)(F)F)C(N)=N1` [Example 70] was tested, and the IC50 was 4 nM. Work on `CN1CC(N)=NC(C)(c2cccc(NC(=O)c3ccc(Br)cn3)c2)C1=O` (stereo not shown) [Example 188, 5-Bromo-pyridine-2-carboxylic acid [3-(6-amino-2,4-dimethyl-3-oxo-2,3,4,5-tetrahydro-pyrazin-2-yl)-phenyl]-amide] yielded an IC50 of 798 nM. Work on `Cc1cc(OC(F)F)cnc1C(=O)Nc1ccc(F)c([C@]2(C(F)F)COCC(N)=N2)c1` [Example 176, 5-Difluoromethoxy-3-methyl-pyridine-2-carboxylic acid [3-((R)-5-amino-3-difluoromethyl-3,6-dihydro-2H-[1,4]oxazin-3-yl)-4-fluoro-phenyl]-amide hydrochloride] yielded an IC50 of 183 nM. For `CC1(c2cccc(NC(=O)c3ccc(Br)cn3)c2)COCC(N)=N1` (stereo not shown) [Example 2, 5-Bromo-pyridine-2-carboxylic acid [3-(5-amino-3-methyl-3,6-dihydro-2H-[1,4]oxazin-3-yl)-phenyl]-amide hydrochloride], the IC50 was 87 nM. `NC1=NC(c2cc(NC(=O)c3ccc(Cl)cn3)ccc2F)(C(F)F)COC1` (stereo not shown) [Example 43] showed an IC50 of 28 nM. Compound `C[C@@H]1OC[C@](c2cc(NC(=O)c3ccc(C#N)cn3)ccc2F)(C(F)F)N=C1N` (relative stereo) [Example 76, 5-Cyano-pyridine-2-carboxylic acid [3-((3R*,6S*)-5-amino-3-difluoromethyl-6-methyl-3,6-dihydro-2H-[1,4]oxazin-3-yl)-4-fluoro-phenyl]-amide hydrochloride] has an IC50 of 175 nM. `Cn1ccnc1C(=O)Nc1ccc(F)c([C@]2(C(F)F)COCC(N)=N2)c1` [Example 133] gave an IC50 of 573 nM. `Cl.[2H]C([2H])([2H])Oc1cnc(C(=O)Nc2ccc(F)c([C@]3(C)CO[C@@](C)(C(F)(F)F)C(N)=N3)c2)c(Cl)c1` [Example 236, 3-Chloro-5-trideutero-methoxy-pyridine-2-carboxylic acid [3-((3R,6R)-5-amino-3,6-dimethyl-6-trifluoromethyl-3,6-dihydro-2H-[1,4]oxazin-3-yl)-4-fluoro-phenyl]-amide hydrochloride] showed an IC50 of 6 nM. `NC1=N[C@@](c2cc(NC(=O)c3cnc(C(F)F)cn3)ccc2F)(C(F)F)COC1` [Example 122] gave an IC50 of 514 nM.
